From the Deep4Chem optical property database
Blank lines part the entries; values can stand above or below the molecule they belong to.

Assay: solvent given as SMILES

absorption maximum (in ClC(Cl)Cl): 515 nm
Structure (SMILES): CCCCCCCCn1c(=O)c2cc3cc4cc5c(=O)n(CCCCCCCC)c(=O)c5cc4c(C#Cc4ccc(N(c5ccccc5)c5ccccc5)cc4)c3cc2c1=O

absorption maximum (in ClCCl): 340 nm
Structure (SMILES): CCCCn1c(-c2ccc(-c3nnc(-c4cccs4)o3)cc2)nc(-c2ccccc2)c1-c1ccccc1

absorption maximum (in CC#N): 352 nm
Structure (SMILES): c1ccc2c(c1)ccc1oc3ccc4cc5oc6ccc7ccc8oc9ccc%10ccccc%10c9c8c7c6c5cc4c3c12

absorption maximum (in C1CCOC1): 344 nm
Structure (SMILES): c1ccc2c(c1)c1ccccc1n2-c1ccc2c(c1)c1ccccc1n2-c1cc2c3ccccc3n3c4ccccc4c(c1)c23

absorption maximum (in O): 454 nm
Structure (SMILES): CC[n+]1c(-c2ccccc2)c2cc(N)ccc2c2ccc(-n3cccc3)cc21

absorption maximum (in C1CCOC1): 332 nm
Structure (SMILES): N#Cc1c(N2CCCCC2)cc(-c2ccc(-c3ccccc3)cc2)c2c1CCc1ccccc1-2

absorption maximum (in CC(=O)O): 532 nm | absorption maximum (in CN(C)C=O): 518 nm | absorption maximum (in CS(C)=O): 519 nm
Structure (SMILES): CCN(CC)c1ccc(/N=N/c2cc3c(=O)[nH][nH]c(=O)c3cc2[N+](=O)[O-])c(NC(C)=O)c1

absorption maximum (in ClCCl): 654 nm
Structure (SMILES): CC(C)[Si](C#Cc1c2cc3ccccc3cc2c(C#Cc2ccc(Br)cc2)c2cc3ccccc3cc12)(C(C)C)C(C)C

absorption maximum (in ClCCl): 334 nm
Structure (SMILES): C(=C\c1cccc2ccccc12)/c1ccc(Oc2ccc3ccccc3c2-c2c(Oc3ccc(/C=C/c4cccc5ccccc45)cc3)ccc3ccccc23)cc1

absorption maximum (in CS(C)=O): 360 nm
Structure (SMILES): COc1cc2sc3nc(-c4ccccc4)sc3c2cc1OC

absorption maximum (in ClCCl): 534 nm
Structure (SMILES): COc1ccc(-c2cc(-c3ccccc3)c3n2[B-](F)(F)[N+]2=C4C=NC=CN4[B-](F)(F)[N+]2=C3)cc1

absorption maximum (in ClCCl): 302 nm
Structure (SMILES): Cc1cc2cc(C)c3c4ccccc4[nH]c3c2o1

absorption maximum (in C1CCOC1): 565 nm
Structure (SMILES): CC1=CS[C@]2(C)C1=C1C(=C3C(C)=C(c4ccc(-c5nc(-c6ccccc6)c(-c6ccccc6)[nH]5)cc4)S[C@]32C)C(F)(F)C(F)(F)C1(F)F

absorption maximum (in C1COCCO1): 437 nm
Structure (SMILES): COC(=O)c1ccc(/C=C2\C=C(c3ccccc3)NC2=O)cc1

absorption maximum (in O): 506 nm
Structure (SMILES): O=C([O-])COc1cc(NC(=O)c2ccc(-c3c4cc(Cl)c(=O)cc-4oc4cc(O)c(Cl)cc34)c(C(=O)[O-])c2)ccc1N(CC(=O)[O-])CC(=O)[O-]

absorption maximum (in C1CCOC1): 407 nm | absorption maximum (in CCCCCC): 399 nm | absorption maximum (in ClC(Cl)Cl): 402 nm | absorption maximum (in ClCCl): 410 nm
Structure (SMILES): O=C1c2cccc3c(-n4c5ccccc5c5ccccc54)ccc(c23)C(=O)N1C1CCCCC1

absorption maximum (in C1CCCCC1): 342 nm | absorption maximum (in CC#N): 341 nm | absorption maximum (in CO): 340 nm | absorption maximum (in ClC(Cl)Cl): 344 nm
Structure (SMILES): CC1(C)CC(NCc2ccc3ccc4cccc5ccc2c3c45)CC(C)(C)N1[O]

absorption maximum (in ClCCl): 340 nm
Structure (SMILES): O=C1c2ccccc2-c2nc3ccccc3n21

absorption maximum (in CN(C)C=O): 323 nm
Structure (SMILES): Cc1cc(-c2ccc(-c3nc4ccccc4[nH]3)cc2)c(C)cc1-c1ccc(-c2nc3ccccc3[nH]2)cc1

absorption maximum (in C1COCCO1): 442 nm
Structure (SMILES): COC(=O)c1ccc(/C=C2\C=C(c3ccc([N+](=O)[O-])cc3)N(CC(C)C)C2=O)cc1

absorption maximum (in CS(C)=O): 398 nm
Structure (SMILES): Cc1cccn2c1cc1c3ccccc3nc(-c3cccs3)c12

absorption maximum (in ClCCl): 518.56 nm
Structure (SMILES): O=C1C(=c2c(=O)c3c4ccccc4cc4cc5ccccc5c2c43)C(=O)c2ccccc21

absorption maximum (in C1CCOC1): 426 nm
Structure (SMILES): CCCCCOc1ccc2c(c1)c1ccc3cccc4c5cccc6oc(=O)c2c(c65)c1c34

absorption maximum (in ClCCl): 405 nm
Structure (SMILES): c1ccc2c(c1)OB1Oc3ccccc3-c3c1c-2c1c2c3-c3ccccc3OB2Oc2ccccc2-1

Continued, molecule first:

Structure (SMILES): O=Cc1ccc(N(c2ccc(C=O)cc2)c2ccc(-c3ccc4c(c3)C(=O)c3ccccc3C4=O)cc2)cc1
absorption maximum (in C1CCOC1): 374 nm | absorption maximum (in CCCCCC): 368 nm | absorption maximum (in CCOC(C)=O): 371 nm | absorption maximum (in CCOCC): 369 nm | absorption maximum (in Cc1ccccc1): 376 nm | absorption maximum (in ClC(Cl)(Cl)Cl): 376 nm | absorption maximum (in ClCCl): 379 nm

Structure (SMILES): Nc1nc(/C=C/c2ccc(N(c3ccccc3)c3ccccc3)cc2)cc(/C=C/c2ccc(N(c3ccccc3)c3ccccc3)cc2)n1
absorption maximum (in Cc1ccccc1): 417 nm | absorption maximum (in ClC(Cl)Cl): 432 nm

Structure (SMILES): CCN(CC)c1ccc([N+]2=Cc3ccc4c5c(ccc4c3O[B-]2(c2ccccc2)c2ccccc2)C=[N+](c2ccc([N+](=O)[O-])cc2)[B-](c2ccccc2)(c2ccccc2)O5)cc1
absorption maximum (in C1CCOC1): 547 nm | absorption maximum (in CC#N): 539 nm | absorption maximum (in CC(C)=O): 541 nm | absorption maximum (in Cc1ccccc1): 555 nm | absorption maximum (in ClCCl): 559 nm

Structure (SMILES): c1ccc(N(c2ccccc2)c2ccc(-c3ccc4c(c3)C3(c5cc(-c6ccc(N(c7ccccc7)c7ccccc7)cc6)ccc5O4)c4ccccc4-c4ccccc43)cc2)cc1
absorption maximum (in ClCCl): 345 nm

Structure (SMILES): Cc1cc(O)c(C(C)C)cc1/N=C/c1ccc(C(F)(F)F)cc1
absorption maximum (in C1CCCCC1): 355 nm | absorption maximum (in C1CCOC1): 363 nm | absorption maximum (in C1COCCO1): 361 nm | absorption maximum (in CC#N): 357 nm | absorption maximum (in CC(C)(C)O): 368 nm | absorption maximum (in CC(C)O): 367 nm | absorption maximum (in CCCCCC): 353 nm | absorption maximum (in CCCCO): 367 nm | absorption maximum (in CCO): 364 nm | absorption maximum (in CCOC(C)=O): 347 nm | absorption maximum (in CN(C)C=O): 364 nm | absorption maximum (in CO): 361 nm | absorption maximum (in CS(C)=O): 366 nm | absorption maximum (in ClC(Cl)Cl): 344 nm | absorption maximum (in ClCCl): 343 nm | absorption maximum (in O): 358 nm | absorption maximum (in OCCO): 363 nm

Structure (SMILES): CC1(C)C(=O)C=Cc2ccc(O)cc21
absorption maximum (in O): 341 nm

Structure (SMILES): O=c1c2cc(I)ccc2nc2n1[B-](F)(F)[n+]1ccccc1-2
absorption maximum (in CC#N): 345 nm | absorption maximum (in ClCCl): 362 nm

Structure (SMILES): O=C1Cc2ccc(cc2)CC(=O)Cc2ccc(c3nsnc23)C1
absorption maximum (in C1CCCCC1): 384 nm | absorption maximum (in CC#N): 382 nm | absorption maximum (in ClC(Cl)Cl): 384 nm

Structure (SMILES): CCCCCCCCCCOc1cc(OCCCCCCCCCC)cc(C2=C3C(/C=C/c4ccc(N(C)C)cc4)=C(C#Cc4ccc(C(C)(C)C)cc4)C(/C=C/c4ccc(N(C)C)cc4)=[N+]3[B-](F)(F)n3c(/C=C/c4ccc(N(C)C)cc4)c(C#Cc4ccc(C(C)(C)C)cc4)c(/C=C/c4ccc(N(C)C)cc4)c32)c1
absorption maximum (in ClC(Cl)Cl): 797 nm

Structure (SMILES): COc1ccc2nc(N)sc2c1
absorption maximum (in CC#N): 305 nm | absorption maximum (in ClCCl): 305 nm

Structure (SMILES): CC(C)(C)c1ccc2c(c1)c1cc(C(C)(C)C)ccc1n2-c1ccc2c(c1)C(=O)c1ccc(-n3c4ccc(C(C)(C)C)cc4c4cc(C(C)(C)C)ccc43)cc1C2=O
absorption maximum (in Cc1ccccc1): 463 nm

Structure (SMILES): O=C1O[B-]2(OC1=O)OC(c1ccccc1)=CC(c1ccc3ccccc3c1)=[O+]2
absorption maximum (in CC#N): 435 nm | absorption maximum (in ClC(Cl)(Cl)Cl): 435 nm

Structure (SMILES): O=C(c1ccc(N(c2ccccc2)c2ccccc2)cc1)[C@H]1[C@H](c2cccs2)C[C@](O)(c2ccccn2)C[C@]1(O)c1ccccn1
absorption maximum (in C1CCOC1): 370 nm | absorption maximum (in CC#N): 364 nm | absorption maximum (in CCO): 368 nm | absorption maximum (in CCOC(C)=O): 366 nm | absorption maximum (in CN(C)C=O): 358 nm | absorption maximum (in ClCCl): 374 nm | absorption maximum (in c1ccccc1): 372 nm

Structure (SMILES): CC1=C(/C=C/c2ccccc2)C2=Cc3c(/C=C/c4ccccc4)c(C)c(C)n3[B-](F)(F)[N+]2=C1C
absorption maximum (in CC#N): 572 nm

Structure (SMILES): Cc1ccc(/C=C/C(F)(F)F)c(N)c1
absorption maximum (in C1CCOC1): 346 nm

Structure (SMILES): N#Cc1nc2c(nc1C#N)C1c3ccc(N(c4ccccc4)c4ccccc4)cc3C2c2ccc(N(c3ccccc3)c3ccccc3)cc21
absorption maximum (in C1CCCCC1): 408 nm | absorption maximum (in CC#N): 378 nm | absorption maximum (in Cc1ccccc1): 391 nm | absorption maximum (in ClCCl): 409 nm

Structure (SMILES): COc1ccc2oc(-c3cc4cc(OC)ccc4oc3=O)cc2c1
absorption maximum (in CC#N): 382 nm | absorption maximum (in CCOC(C)=O): 384 nm | absorption maximum (in CS(C)=O): 389 nm | absorption maximum (in Cc1ccccc1): 388 nm | absorption maximum (in O): 347 nm

Structure (SMILES): Cc1cc(O)c(C(=O)/C=C/c2ccc(Cl)cc2)c(=O)o1
absorption maximum (in CC#N): 357 nm | absorption maximum (in ClCCl): 360 nm

Structure (SMILES): CN(C)CCNCc1c2ccccc2cc2ccccc12
absorption maximum (in C1CCCCC1): 368 nm | absorption maximum (in C1CCOC1): 366 nm | absorption maximum (in CC#N): 365 nm | absorption maximum (in CC(C)=O): 365 nm | absorption maximum (in CCO): 366 nm | absorption maximum (in CN(C)C=O): 363 nm | absorption maximum (in CO): 364 nm | absorption maximum (in ClC(Cl)Cl): 367 nm

Structure (SMILES): COc1cc(-c2nc(-c3ccccc3)c(-c3ccccc3)[nH]2)c(OC)cc1/C=C/c1ccncc1
absorption maximum (in C1CCOC1): 394 nm | absorption maximum (in CC#N): 392 nm | absorption maximum (in CN(C)C=O): 397 nm | absorption maximum (in Cc1ccccc1): 398 nm

Structure (SMILES): CC(C)[Si](C#Cc1cc2c(=S)c3cc(C#C[Si](C(C)C)(C(C)C)C(C)C)cc4c(=S)c5cc(C#C[Si](C(C)C)(C(C)C)C(C)C)cc6c(=S)c(c1)c2n(c34)c65)(C(C)C)C(C)C
absorption maximum (in ClCCl): 577 nm

Structure (SMILES): CCN(CC)c1cccc(C=O)c1
absorption maximum (in CC#N): 380 nm | absorption maximum (in CC(C)O): 382 nm | absorption maximum (in CCCCCC): 367 nm | absorption maximum (in CCOC(C)=O): 376 nm | absorption maximum (in CO): 382 nm | absorption maximum (in CS(C)=O): 384 nm | absorption maximum (in Cc1ccccc1): 380 nm | absorption maximum (in ClCCl): 382 nm

Structure (SMILES): c1cc2ccc3ccc4cc3c2cc1c1ccc2c(c1)c1cc(ccc1[C@]13OCCO[C@]21OCCO3)c1ccc2c(c1)c1cc4ccc1[C@]13OCCO[C@]21OCCO3
absorption maximum (in Cc1ccccc1): 353 nm

Structure (SMILES): c1ccc2nc3cccc(-c4ccc(-n5c6ccccc6c6ccccc65)cc4)c3cc2c1
absorption maximum (in C1CCOC1): 359 nm | absorption maximum (in CC#N): 358 nm | absorption maximum (in CC(C)=O): 358 nm | absorption maximum (in CC(C)OC(C)C): 359 nm | absorption maximum (in CCCCCC): 359 nm | absorption maximum (in CCCCOCCCC): 359 nm | absorption maximum (in CCOC(C)=O): 359 nm | absorption maximum (in CCOCC): 358 nm
